From ChEMBL document CHEMBL5390218, “Benzimidazole derivatives as tubulin polymerization inhibitors: Design, synthesis and in vitro cytotoxicity studies” (Bioorg Med Chem Lett, 2023)
The source made the active and inactive calls. The calls are words filed in the database; no cut-off is given here.

Legend:
SK-MEL-28 [1] = test: Induction of morphological changes in human SK-MEL-28 cells assessed as chromatin condensation at 1 to 5 uM measured after 48 hrs DAPI staining based analysis; format: functional, cell-based; settings: dose 1-5 µM
SK-MEL-28 [2] = test: Anticancer activity against human SK-MEL-28 cells assessed as inhibition in cell growth measured after 72 hrs by MTT assay; format: functional, cell-based; settings: SK-MEL-28, 72 h
SK-MEL-28 [3] = test: Induction of mitochondrial membrane potential changes in human SK-MEL-28 cells assessed as J-aggregate level by measuring red fluorescence intensity at 5 uM incubated for 48 hrs by JC-1 staining based analysis (reference value: 98.9%); format: functional
SK-MEL-28 [4] = test: Induction of ROS generation in human SK-MEL-28 cells by DCFDA staining based analysis; format: functional, cell-based; settings: dose 1-5 µM
Tubulin (Homo sapiens) [5] = target: T1, Tubulin (Homo sapiens) (UniProt P68371+Q9H4B7+P0DPH7+P68366+Q13509+Q71U36+P04350+Q3ZCM7+P07437+P68363+Q9BQE3+Q6PEY2+Q13885+Q9BVA1+Q9BUF5); test: Inhibition of tubulin polymerization (unknown origin) at 0.75 uM incubated for 1 hr relative to control; format: protein-complex assay
MCF7 = test: Anticancer activity against human MCF7 cells assessed as inhibition in cell growth measured after 72 hrs by MTT assay; format: functional, cell-based; settings: MCF7, 72 h
SK-MEL-28 [6] = test: Induction of cell cycle arrest in human SK-MEL-28 cells assessed as accumulation of cells at G0-G1 phase at 1 uM measured after 48 hrs by PI staining based flow cytometry (reference value: 74.32%); format: functional
[7] = Selectivity index, ratio of IC50 for NRK-52E cells to ratio of IC50 for human SK-MEL-28 cells
SK-MEL-28 [8] = test: Induction of morphological changes in human SK-MEL-28 cells assessed as cell shrinkage by ethidium bromide/acridine orange staining based analysis; format: functional; settings: dose 1-5 µM
SK-MEL-28 [9] = test: Induction of apoptosis in human SK-MEL-28 cells assessed as late apoptotic cells at 1 uM incubated for 24 hrs by Annexin V-FITC/PI dual staining based flow cytometry analysis (reference value: 0.1%); format: functional
SK-MEL-28 [10] = test: Induction of morphological changes in human SK-MEL-28 cells assessed as membrane blebbing by ethidium bromide/acridine orange staining based analysis; format: functional, cell-based; settings: dose 1-5 µM
SK-MEL-28 [11] = test: Induction of mitochondrial membrane potential depolarization in human SK-MEL-28 cells assessed as J-monomer level by measuring green fluorescence intensity at 1 uM incubated for 48 hrs by JC-1 staining based analysis (reference value: 0.8%); format: functional
[12] = Selectivity index, ratio of IC50 for NRK-52E cells to ratio of IC50 for mouse B16-F10 cells; format: toxicity; settings: NRK-52E cells versus B16-F10 cells, read-out: Selectivity Index
B16-F10 = test: Anticancer activity against mouse B16-F10 cells assessed as inhibition in cell growth measured after 72 hrs by MTT assay; format: functional, cell-based; settings: B16-F10, 72 h
SK-MEL-28 [13] = test: Induction of apoptosis in human SK-MEL-28 cells assessed as late apoptotic cells at 2.5 uM incubated for 24 hrs by Annexin V-FITC/PI dual staining based flow cytometry analysis (reference value: 0.1%); format: functional
SK-MEL-28 [14] = test: Induction of cell cycle arrest in human SK-MEL-28 cells assessed as accumulation of cells at G2 phase at 2.5 uM measured after 48 hrs by PI staining based flow cytometry (reference value: 9.17%); format: functional
A549 = test: Anticancer activity against human A549 cells assessed as inhibition in cell growth measured after 72 hrs by MTT assay; format: functional, cell-based; settings: A549, 72 h
Tubulin (Homo sapiens) [15] = target: T1, Tubulin (Homo sapiens); test: Inhibition of tubulin polymerization (unknown origin) at 6 uM incubated for 1 hr relative to control; format: protein-complex assay
SK-MEL-28 [16] = test: Induction of cell cycle arrest in human SK-MEL-28 cells assessed as accumulation of cells at S phase at 5 uM measured after 48 hrs by PI staining based flow cytometry (reference value: 16.5%); format: functional
Tubulin (Homo sapiens) [17] = target: T1, Tubulin (Homo sapiens); test: Inhibition of tubulin polymerization (unknown origin) at 12 uM incubated for 1 hr relative to control; format: protein-complex assay
[18] = Selectivity index, ratio of IC50 for NRK-52E cells to ratio of IC50 for human MCF7 cells; format: toxicity; settings: rat (NRK-52E), NRK-52E cells versus MCF7 cells, read-out: Selectivity Index
[19] = Cytotoxicity against NRK-52E cells assessed as inhibition in cell growth measured after 72 hrs by MTT assay; format: toxicity, cell-based; settings: rat
Tubulin (Homo sapiens) [20] = target: T1, Tubulin (Homo sapiens); test: Inhibition of tubulin polymerization (unknown origin) at 1.5 uM incubated for 1 hr relative to control; format: protein-complex assay
SK-MEL-28 [21] = test: Induction of cell cycle arrest in human SK-MEL-28 cells assessed as accumulation of cells at G2 phase at 5 uM measured after 48 hrs by PI staining based flow cytometry (reference value: 9.17%); format: functional
SK-MEL-28 [22] = test: Induction of apoptosis in human SK-MEL-28 cells assessed as live cells at 1 uM incubated for 24 hrs by Annexin V-FITC/PI dual staining based flow cytometry analysis (reference value: 99.9%); format: functional
Tubulin = test: (§1) Inhibition of tubulin polymerization (unknown origin) incubated for 1 hr; format: protein-complex assay, Homo sapiens
Tubulin (Homo sapiens) [23] = target: T1, Tubulin (Homo sapiens); test: as §1; format: protein-complex assay; settings: dose 0.75-12 µM
SK-MEL-28 [24] = test: Inhibition of cell migration in human SK-MEL-28 cells at 1 to 5 uM incubated for 0 to 48 hrs by phase-contrast microscopy; format: functional, cell-based; settings: dose 1-5 µM, time 0-48 hrs
SK-MEL-28 [25] = test: Induction of apoptosis in human SK-MEL-28 cells assessed as early apoptotic cells at 1 uM incubated for 24 hrs by Annexin V-FITC/PI dual staining based flow cytometry analysis (reference value: 0.0%); format: functional
SK-MEL-28 [26] = test: Induction of mitochondrial membrane potential depolarization in human SK-MEL-28 cells assessed as J-monomer level by measuring green fluorescence intensity at 5 uM incubated for 48 hrs by JC-1 staining based analysis (reference value: 0.8%); format: functional
SK-MEL-28 [27] = test: Induction of morphological changes in human SK-MEL-28 cells assessed as chromatin condensation by ethidium bromide/acridine orange staining based analysis; format: functional, cell-based; settings: dose 1-5 µM
[28] = Selectivity index, ratio of IC50 for NRK-52E cells to ratio of IC50 for human HCT-116 cells; format: toxicity; settings: rat (NRK-52E), NRK-52E cells versus HCT-116 cells, read-out: Selectivity Index
HCT-116 = test: Anticancer activity against human HCT-116 cells assessed as inhibition in cell growth measured after 72 hrs by MTT assay; format: functional, cell-based; settings: HCT-116, 72 h
SK-MEL-28 [29] = test: Induction of morphological changes in human SK-MEL-28 cells assessed as production of apoptotic bodies by ethidium bromide/acridine orange staining based analysis; format: functional, cell-based; settings: dose 1-5 µM
SK-MEL-28 [30] = test: Induction of morphological changes in human SK-MEL-28 cells assessed as appearance of nuclei at 1 to 5 uM measured after 48 hrs DAPI staining based analysis; format: functional, cell-based; settings: dose 1-5 µM
SK-MEL-28 [31] = test: Inhibition of colony formation in human SK-MEL-28 cells incubated for 48 hrs by crystal violet staining based colony formation assay; format: functional, cell-based; settings: dose 1-5 µM
SK-MEL-28 [32] = test: Induction of cell cycle arrest in human SK-MEL-28 cells assessed as accumulation of cells at S phase at 2.5 uM measured after 48 hrs by PI staining based flow cytometry (reference value: 16.5%); format: functional

Structure (SMILES): COc1cc(-c2nc3cc(F)ccc3[nH]2)ccc1OCC(=O)N1CCc2ccccc21
- Activity (SK-MEL-28 [1]): Active
- IC50 (SK-MEL-28 [2]): 2.69 µM
- Activity (SK-MEL-28 [3]): 85.1%
- Activity (SK-MEL-28 [4]): Dose-Dependent Effect
- inhibition (Tubulin (Homo sapiens) [5]): 20.4%
- IC50 (MCF7): 17.9 µM
- Activity (SK-MEL-28 [6]): 61.71%
- Selectivity Index [7]: 20
- Activity (SK-MEL-28 [8]): Dose-Dependent Effect
- Activity (SK-MEL-28 [9]): 10.7%
- Activity (SK-MEL-28 [10]): Dose-Dependent Effect
- Activity (SK-MEL-28 [11]): 2%
- selectivity ratio [12]: 17.4
- IC50 (B16-F10): 3.1 µM
- Activity (SK-MEL-28 [13]): 20.2%
- Activity (SK-MEL-28 [14]): 24.82%
- IC50 (A549): 3.84 µM
- inhibition (Tubulin (Homo sapiens) [15]): 52.4%
- Activity (SK-MEL-28 [16]): 25.66%
- inhibition (Tubulin (Homo sapiens) [17]): 64.1%
- selectivity ratio [18]: 3
- IC50 at 72 h [19]: 53.8 µM
- inhibition (Tubulin (Homo sapiens) [20]): 35.1%
- Activity (SK-MEL-28 [21]): 26.05%
- Activity (SK-MEL-28 [22]): 28.5%
- IC50 (Tubulin): 5.65 µM
- inhibition (Tubulin (Homo sapiens) [23]): Dose-Dependent Effect
- inhibition (SK-MEL-28 [24]): Active
- Activity (SK-MEL-28 [25]): 60.8%
- Activity (SK-MEL-28 [26]): 14.9%
- Activity (SK-MEL-28 [27]): Dose-Dependent Effect
- selectivity ratio [28]: 7.7
- IC50 (HCT-116): 6.98 µM
- Activity (SK-MEL-28 [29]): Dose-Dependent Effect
- Activity (SK-MEL-28 [30]): Active
- inhibition (SK-MEL-28 [31]): Dose-Dependent Effect
- Activity (SK-MEL-28 [32]): 23.71%
